We go through six molecules from patent US20240300945A1, “CLY SERIES COMPOUND, PREPARATION METHOD THEREFOR AND USE THEREOF IN PREPARATION OF DRUGS” (NANJING WELLBEST PHARMACEUTICAL CO., LTD, priority 2021, published 2024).

This assay has as its system skin hair follicles and sebaceous glands of rats. As to the kind of experiment: Rat hair loss model: histopathological grading of skin hair follicles and sebaceous glands. Type of assay: in vivo, Wistar rats. As to conditions: 60 days, 10 rats per group; for number of rats with hair follicle and sebaceous gland grade +++: grade +++ (most severe); for number of rats with hair follicle and sebaceous gland grade ±: grade ± (lesions limited); for number of rats with hair follicle and sebaceous gland grade −: grade − (normal structure). The text has this:
Wistar rats were, according to weights, randomly divided into the negative control group (75% ethanol for external use), model group (75% ethanol for external use), positive control group (external 5% minoxidil tincture), CLY-1 external treatment group (external 5% CLY-1 tincture), CLY-2 external treatment group (external 5% CLY-2 tincture), CLY-3 external treatment group (external 5% CLY-3 tincture), CLY-4 external treatment group (external 5% CLY-4 tincture), and CLY-5 external treatment group (external 5% CLY-5 tincture) according to their body weight CLY-8 external treatment group (external 5% CLY-8 tincture), CLY-11 external treatment group (external 5% CLY-11 tincture), CLY-19 external treatment group (external 5% CLY-19 tincture), CLY-36 external treatment group (external 5% CLY-36 tincture), CLY-39 external treatment group (external 5% CLY-39 tincture), CLY-1 intravenous injection group (2 mg/kg·d), CLY-3 intravenous injection group (2 mg/kg·d), CLY-4 intravenous injection group (2 mg/kg·d) CLY-5 intravenous injection group (2 mg/kg·d), CLY-8 intravenous injection group (2 mg/kg·d), CLY-11 intravenous injection group (2 mg/kg·d), CLY-19 intravenous injection group (2 mg/kg·d), CLY-36 intravenous injection group (2 mg/kg·d), and CLY-39 intravenous injection group (2 mg/kg·d), with 10 rats in each group. Before the experiment, an area of 4 cm×5 cm was selected on each rat on the back of the neck to remove hair as the observation area. In addition to the negative control group, rats were subcutaneously injected with testosterone propionate injection [5 ml/(kg·d)] once a day for 60 days to establish the androgenic alopecia (AGA) model. […] At the same time, the drug was applied to the observation area on the back of the rats in the corresponding drug group at the rate of 2 mL/(one time), twice a day, at an interval of 8 hours; Intravenous administration once a day. The negative control group and the model control group were smeared with 75% ethanol solution, 2 mL/(one rat per time), twice a day, for 60 days.
Took 10 hairs from the observation area on the back of each rat every 15 days after administration, and measured the hair length with a vernier caliper. After 60 days of administration, the skin of the experimental observation area was taken for routine tissue dehydration, paraffin embedding, HE staining, and light microscopy to observe the histopathological changes of the rat skin hair follicles and sebaceous glands. Semi-quantitative analysis was performed for each group. The grading criteria are as follows: the normal structure of dermal tissue cells, subcutaneous hair follicles, and sebaceous glands is marked as […]: no hyperplasia of dermal tissue is found, the lesions of hair follicles and sebaceous glands are limited, and no inflammation is found under the skin is marked as “+”: no obvious hyperplasia of dermal tissue is found, and the follicles are obviously cystic. No obvious hyperplasia of sebaceous glands is found, and no inflammation is found under the skin is marked as “+”: the dermal tissue has segmental hyperplasia, which is not obvious, A small number of hair follicles have cystic changes, and the sebaceous glands have mild hyperplasia and hypertrophy. There is no obvious inflammation under the skin, which is marked as “++”: the dermal tissue cells of the skin have different degrees of segmental hyperplasia, and some hair follicles have cystic changes, showing uneven size of hair follicles, and no cells around. The sebaceous glands have hyperplasia, and the nuclei in the proliferative glands are few. A few rats have mild inflammatory hyperplasia under the skin, which is marked as “+++”.

In the case of `COC1CCCC(N(C(=O)c2ccc(-n3nnc4cccnc43)cc2)c2ncccc2Cl)C1` (stereo not drawn) [CLY-5], where the note is “external 5% tincture”, the “number of rats with hair follicle and sebaceous gland grade +++” value was 0; the “number of rats with hair follicle and sebaceous gland grade ++” value was determined as 0; the “number of rats with hair follicle and sebaceous gland grade +” value worked out at 4; the “number of rats with hair follicle and sebaceous gland grade ±” value is given as 6. In addition, where the note is “external 5% tincture”, the “number of rats with hair follicle and sebaceous gland grade −” value was 0. Besides, where the note is “intravenous 2 mg/kg·d”, the “number of rats with hair follicle and sebaceous gland grade +++” value is recorded as 0; the “number of rats with hair follicle and sebaceous gland grade ++” value is given as 0; the “number of rats with hair follicle and sebaceous gland grade +” value is on record as 2; the “number of rats with hair follicle and sebaceous gland grade ±” value amounted to 8. For the same molecule, the “number of rats with hair follicle and sebaceous gland grade −” value (intravenous 2 mg/kg·d) is recorded as 0.
Take `CN1CCC[C@@H](N(C(=O)c2ccc(-n3nnc4cccnc43)cc2)c2ncccc2Cl)C1` [CLY-1, (R)-4-(3H-[1,2,3]triazolo[4,5-b]pyridin-3-yl)-N-(3-chloropyridin-2-yl)-N-(1-methylpiperidin-3-yl)benzamide]: for the setting “external 5% tincture”, the “number of rats with hair follicle and sebaceous gland grade +++” value worked out at 0; the “number of rats with hair follicle and sebaceous gland grade ++” value was determined as 1; the “number of rats with hair follicle and sebaceous gland grade +” value was 4; the “number of rats with hair follicle and sebaceous gland grade ±” value was 5. Further, for the setting “external 5% tincture”, the “number of rats with hair follicle and sebaceous gland grade −” value is on record as 0. Moreover, under “intravenous 2 mg/kg·d”, the “number of rats with hair follicle and sebaceous gland grade +++” value was 0; the “number of rats with hair follicle and sebaceous gland grade ++” value is listed as 0; the “number of rats with hair follicle and sebaceous gland grade +” value was 4; the “number of rats with hair follicle and sebaceous gland grade ±” value is 6. Under “intravenous 2 mg/kg·d”, the “number of rats with hair follicle and sebaceous gland grade −” value was determined as 0.
As to `CCN1CCC[C@@H](N(C(=O)c2ccc(-n3nnc4cccnc43)cc2)c2ncccc2Cl)C1` [CLY-2, (R)-4-(3H-[1,2,3]triazolo[4,5-b]pyridin-3-yl)-N-(3-chloropyridin-2-yl)-N-(1-ethylpiperidin-3-yl)benzamide], for the setting “external 5% tincture”, the “number of rats with hair follicle and sebaceous gland grade +++” value was 0; the “number of rats with hair follicle and sebaceous gland grade ++” value came to 1; the “number of rats with hair follicle and sebaceous gland grade +” value stood at 3; the “number of rats with hair follicle and sebaceous gland grade ±” value is recorded as 6. The “number of rats with hair follicle and sebaceous gland grade −” value (external 5% tincture) is recorded as 0. In addition, under “intravenous 2 mg/kg·d”, the “number of rats with hair follicle and sebaceous gland grade +++” value was determined as 0; the “number of rats with hair follicle and sebaceous gland grade ++” value is 0; the “number of rats with hair follicle and sebaceous gland grade +” value is given as 3; the “number of rats with hair follicle and sebaceous gland grade ±” value stood at 7. Further, the “number of rats with hair follicle and sebaceous gland grade −” value (intravenous 2 mg/kg·d) was 0.
As to `NC1CCCC(N(C(=O)c2ccc(-n3nnc4cccnc43)cc2)c2ncccc2Cl)C1` (stereo not drawn) [CLY-11], for the setting “external 5% tincture”, the “number of rats with hair follicle and sebaceous gland grade +++” value is on record as 0; the “number of rats with hair follicle and sebaceous gland grade ++” value is on record as 1; the “number of rats with hair follicle and sebaceous gland grade +” value turned out to be 4; the “number of rats with hair follicle and sebaceous gland grade ±” value was found to be 5. The “number of rats with hair follicle and sebaceous gland grade −” value (external 5% tincture) is 0. Under “intravenous 2 mg/kg·d”, the “number of rats with hair follicle and sebaceous gland grade +++” value came out at 0; the “number of rats with hair follicle and sebaceous gland grade ++” value amounted to 1; the “number of rats with hair follicle and sebaceous gland grade +” value came out at 3; the “number of rats with hair follicle and sebaceous gland grade ±” value stood at 6. Further, the “number of rats with hair follicle and sebaceous gland grade −” value (intravenous 2 mg/kg·d) is given as 0.
With `O=C(c1ccc(-n2nnc3cccnc32)cc1)N(c1ncccc1Cl)C1CCCC(O)C1` (stereo not drawn) [CLY-4], under “external 5% tincture”, the “number of rats with hair follicle and sebaceous gland grade +++” value is reported as 0; the “number of rats with hair follicle and sebaceous gland grade ++” value was determined as 3; the “number of rats with hair follicle and sebaceous gland grade +” value is on record as 4; the “number of rats with hair follicle and sebaceous gland grade ±” value is 3. Moreover, the “number of rats with hair follicle and sebaceous gland grade −” value (external 5% tincture) was found to be 0. Under “intravenous 2 mg/kg·d”, the “number of rats with hair follicle and sebaceous gland grade +++” value was found to be 0; the “number of rats with hair follicle and sebaceous gland grade ++” value worked out at 1; the “number of rats with hair follicle and sebaceous gland grade +” value came to 5; the “number of rats with hair follicle and sebaceous gland grade ±” value is 4. Further, the “number of rats with hair follicle and sebaceous gland grade −” value (intravenous 2 mg/kg·d) came to 0.
Regarding `O=C(c1ccc(-c2ccccc2-c2nnn[nH]2)cc1)N(c1ncccc1Cl)[C@@H]1CCCNC1` [CLY-19], for the setting “external 5% tincture”, the “number of rats with hair follicle and sebaceous gland grade +++” value is 0; the “number of rats with hair follicle and sebaceous gland grade ++” value came to 2; the “number of rats with hair follicle and sebaceous gland grade +” value is 3; the “number of rats with hair follicle and sebaceous gland grade ±” value amounted to 5. Also, the “number of rats with hair follicle and sebaceous gland grade −” value (external 5% tincture) worked out at 0. Further, under “intravenous 2 mg/kg·d”, the “number of rats with hair follicle and sebaceous gland grade +++” value worked out at 0; the “number of rats with hair follicle and sebaceous gland grade ++” value is listed as 2; the “number of rats with hair follicle and sebaceous gland grade +” value came out at 2; the “number of rats with hair follicle and sebaceous gland grade ±” value was determined as 6. Further, the “number of rats with hair follicle and sebaceous gland grade −” value (intravenous 2 mg/kg·d) was 0.
